“Also recorded” adds a separate entry of the source. Bounds are passed on as bounds.

Here are results for 1 compound from patent publication US12161114B2, “Overpowered ABA receptor agonists” (The Regents of the University of California, priority 2018, dated 2024).

Assay [1] relates to panel of recombinant ABA receptors; PP2C HAB1. The assay can be described thus: receptor-mediated PP2C inhibition assay, dose response, umbelliferone substrate. In kind it is biochemical, Arabidopsis. The protocol: (§1) Each ligand was tested at concentrations spanning 7 points between 4 nM and 50 μM in triplicate in a reaction buffer containing 100 mM Tris-HCl-pH7.9, 100 mM NaCl, 30 μg/ml BSA, 0.1% 2-mercaptoethanol, 25 nM ΔN-HAB1, 1 mM 4-methylumbelliferyl phosphate, and different recombinant ABA receptors at 50 nM or 300 nM (for PYL9 or PYL11). The substrate was added ˜20 minutes after the other components had been mixed and fluorescence data collected. Control carrier solvent-only wells were included as a reference and %-activity for tested compounds calculated relative to this control. The dose response data (PP2C activity versus agonist concentration) was fit to a log (inhibitor) vs. response-(variable slope) model using non-linear regression to infer the IC50S, using GraphPad Prism 6.0, to yield the IC50 values shown in FIG. 6.
The potency and selectivity of ligands 2b, 2e-f was established by testing their ability to activate multiple ABA receptor subtypes using the fluorescence based phosphasted assay as outlined in example 2 at a range of concentrations (4 nM to 50 μM). In addition, we compared ligand potency to ABA, quinabactin and a recently described fluorinated quinabactin analog AMF4, which is reported to have improved potency in comparison toe quinabactin. To conduct the assays purified recombinant receptors were tested at 50 nM or, in the a cases of PYL9 and PYL11, 300 nM and 25 nM ΔN-HAB1. The PP2C-activity dose response data obtained was fit to a log (inhibitor) vs response-(variable slope) model using non-linear regression to infer the IC50S, using GraphPad Prism 6.0, to yield IC50 values as shown in FIG. 12A. […] Moreover, the installation of a single cyclopropyl group ortho to the nitrile (analog 2e) provided a further boost in potency, dramatically so for all subfamily III receptors, PYL4 and PYL11. […] Furthermore, the installation of a second cyclopropyl substituent (analog 2f) provides an even further boot in activity on subfamily III receptors, which comes at the expense of reduced potency on subfamily I receptors. […] 2f is therefore an unusually overpowered ABA receptor agonist, which we refer to as opabactin (Opa).

In the next assay the target is T1, PYR1 (Arabidopsis thaliana, UniProt O49686).
T1 construct: made in house
T1 sequence (O49686 1-191): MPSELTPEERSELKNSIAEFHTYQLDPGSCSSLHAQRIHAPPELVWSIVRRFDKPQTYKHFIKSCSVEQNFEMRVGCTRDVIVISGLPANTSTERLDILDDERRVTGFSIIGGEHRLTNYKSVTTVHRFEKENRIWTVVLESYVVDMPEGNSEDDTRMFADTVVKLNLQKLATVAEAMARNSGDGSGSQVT
T1 sequence (Q9CAJ0 180-511 partner limits assumed): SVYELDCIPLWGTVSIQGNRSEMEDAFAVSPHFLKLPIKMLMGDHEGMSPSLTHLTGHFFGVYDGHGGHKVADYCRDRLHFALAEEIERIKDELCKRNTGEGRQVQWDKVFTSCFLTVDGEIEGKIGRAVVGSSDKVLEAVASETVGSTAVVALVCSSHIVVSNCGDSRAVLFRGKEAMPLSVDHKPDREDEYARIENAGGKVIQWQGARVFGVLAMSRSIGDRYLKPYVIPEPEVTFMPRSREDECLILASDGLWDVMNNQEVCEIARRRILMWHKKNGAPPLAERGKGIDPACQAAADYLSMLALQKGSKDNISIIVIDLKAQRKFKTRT
The assay can be described thus: receptor-mediated PP2C inhibition assay, fluorescence based, PYR1. It is filed as biochemical. As to the method: as §1
The potency and selectivity of ligands 2b, 2e-f was established by testing their ability to activate multiple ABA receptor subtypes using the fluorescence based phosphasted assay as outlined in example 2 at a range of concentrations (4 nM to 50 μM). […]
We first explored if replacing the cyclopropyl group with an isopropyl group affects the activity of the ligand against PYR1. Ligands were tested using the fluorescence based PP2C assay described in example 2.

Another assay concerns Arabidopsis plants. Kind of assay: thermal imaging of leaf temperature (anti-transpirant activity), Arabidopsis. It is filed as in vivo, Arabidopsis thaliana. The conditions noted are these: 50 μM spray, 24 hr after treatment. The protocol:
Three to 4 week old Arabidopsis plants were used for thermal imaging, 4 evenly spaced seedlings were included per 4-inch pot, each pot treated as a single measurement. Chemical treatments were as follow: compounds were dissolved in 0.5% DMSO and 0.02% Silwet-77 (Lehle seeds) at 50 μM and rosette leaves treated with 5 mL applied as an aerosol. Thermal images were collected using FLIR T62101 camera 24 hr after treatment. Seedlings positions were randomized to control for microenvironmental differences in the growth room. Treated plants were compared to mock treated plants (sprayed with 5 mL blank 0.5% DMSO/0.02% Silwet-77 solution). Average rosette leaf temperatures were obtained by averaging the temperatures measured from between 10-15˜1 cm^2 area spots from the 4 plants in each replicate pot, using FLIR software. Statistical analyses of the treatment effects were conducted in GraphPad using a one way ANOVA between control and treatment samples and a Dunnett test was used to obtain multiplicity adjusted p values, which are reported in FIG. 15.

Another assay has as its system wheat seedlings. The assay can be described thus: thermal imaging of leaf temperature (anti-transpirant activity), wheat. In kind it is in vivo, Triticum aesitivum. As to the method:
To evaluate the effects of the optimized ligands on transpiration, we performed quantitative thermal imaging of 2 week old wheat seedlings (var. Cal Rojo) after chemical or mock treatments. Each pot contained 15 seedlings and was treated as a single replicate for a total of n=4. Seedlings were treated with 10 mL aerosolized solutions containing compounds of interest dissolved in 0.5% DMSO and 0.05% Silwet-77 (Lehle seeds). Thermal images were collected using a FLIR T62101 camera ˜24 hours post treatment. Average leaf temperatures were obtained by averaging the temperatures measured from between 10-15 ˜1 cm^2 area spots from the 15 plants sowed in each replicate pot.
To gain more detailed comparisons of the potency and persistence of different ABA agonists, we treated wheat seedlings (var. WB9229) with a range of agonist concentrations (mock, 11, 33, 100, 300 μM) and collected leaf temperature data at 24 hour intervals for 5 days. Mock treated samples were analyzed with 10 replicates and chemical treatments with 5 replicates. […] The corrected p-values for treatment effects at all time points is summarized in the inset table and highlighted yellow if a significant increase in leaf temperature was observed.

Another assay has as its system tomato plants. The assay can be described thus: thermal imaging of leaf temperature (anti-transpirant activity), tomato. In kind it is in vivo, Lycopersicon esculentum. The conditions noted are these: var. UC82, 50 μM or 100 μM spray, 24 hour intervals for 5 days. The protocol: To evaluate the efficacy of Opa in a different crop species, we performed quantitative thermal imaging in tomato plants. Tomato (var. UC82), seeds were spread on a moist filter paper and incubated in a dark chamber at room temperature for 7 days, after which they were transferred to light. After the first leaves emerged, the seedlings were transferred to soil and grown on a day night cycle; 3-4 w old plants were used for thermal imaging. Before thermal imaging, topical spraying of the plants was performed with a water solution containing ABA, quinabactin or the compound of interest, 0.5% DMSO and 0.05% Silwet-77 (Lehle seeds). 20 mL of 50 μM or 100 μM solutions were sprayed on the plants and thermal images were taken with an infrared camera (FLIR T62101) at 24 hour intervals after treatment for 5 days. […] Mock treated samples were analyzed with 8 replicates and chemical treatments with 4 replicates. […] The corrected p-values for treatment effects at all time points is summarized in the inset table and highlighted yellow if a significant increase in leaf temperature was observed.

As for `N#Cc1c(C2CC2)cc(CC(=O)NC2(C(=O)O)CCCCC2)cc1C1CC1` [2f, 1-[2-(4-cyano-3,5-dicyclopropylphenyl)acetamido]cyclohexane-1-carboxylic acid], the “potency in receptor-mediated PP2C inhibition (in words)” value in assay [1] (4 nM to 50 μM dose response) was “most potent subfamily III agonist reported to date; also recorded: greatly more active than quinabactin and AMF4 on subfamily III receptors”. In addition, in assay [1] (subfamily IIIA receptors), the “improved potency relative to ABA” value is over 10 x. For the same compound, the “increased potency on PYR1 relative to ABA” value at PYR1 was about 10 ×. In addition, the “effects on transpiration (leaf temperature)” value with Arabidopsis plants is recorded as “ABA-like effects on transpiration”. For the same compound, the “anti-transpirant activity (leaf temperature)” value with wheat seedlings (var. Cal Rojo, 50 μM, ~24 hours post treatment) is listed as “highly efficacious anti-transpirant”; in the assay with tomato plants, “highly active anti-transpirant in tomato with significantly longer effects than ABA”. For the same compound, in the assay with wheat seedlings (var. WB9229, 11, 33, 100, 300 μM, 24 hour intervals for 5 days), the “thermal response, potency and persistence” value was “potent and persistent thermal response”.
